This is an account of results in the NIST ThermoML archive (doi:10.1021/acs.jced.8b00192).

The conditions of data set [1]: Crystal; DTA.
A short description of data set [2]: Molar enthalpy of transition or fusion. Particulars: Crystal; DSC.

Numbers after ± are expanded uncertainties.

For the compound `CC(=O)c1cccc([N+](=O)[O-])c1` [1-(3-nitrophenyl)ethanone], the Normal melting temperature in data set [1] is 76.53 ± 1.1 °C. In data set [2], the “Molar enthalpy of transition or fusion” value came out at 3.86 ± 0.21 kcal/mol.
In the same order, the values of `CC(=O)c1ccc([N+](=O)[O-])cc1` [1-(4-nitrophenyl)ethanone] are 81.00 ± 1.1 °C and 5.72 ± 0.225 kcal/mol.
